Source: PubChem BioAssay (NCI)
“And” between values parts separate entries of the source, which are not always exact repeats. Equal values may be shown once.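 Exposure lasted 48 hours, with cells grown in 96-well plates and compounds tested at five concentrations. GI50 = concentration required for 50% inhibition of growth. Definition used: TGI = concentration required for complete inhibition of growth.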

Legend:
Assay in all cases: inhibition of tumour cell growth, NCI panel, 48 h
[1] = test system: RPMI-8226 leukemia
[2] = test system: OVCAR-3 ovarian
[3] = test system: M14 melanoma
[4] = test system: SF-295 CNS
[5] = test system: U251 CNS
[6] = test system: PC-3 prostate
[7] = test system: A498 renal
[8] = test system: OVCAR-5 ovarian
[9] = test system: MDA-MB-435
[10] = test system: HCT-15 colon

Structure (SMILES)	TGI [1]	TGI [2]	TGI [3]	TGI [4]	TGI [5]	TGI [6]	TGI [7]	TGI [8]	TGI [9]	TGI [10]	GI50 [1]	GI50 [9]	GI50 [2]	GI50 [3]	GI50 [4]	GI50 [6]	GI50 [8]
CCCN(CCC)C1CCc2c(ccc3cc[nH]c23)C1 (configuration not stated)	> 100 µM	> 100 µM	32.4 µM	> 100 µM	> 100 µM	> 100 µM	> 100 µM	> 100 µM	> 100 µM	> 100 µM							
COC1(c2cccs2)c2ccccc2C(OC)(c2cccs2)c2ccccc21 (configuration not stated)	> 100 µM	> 100 µM	> 100 µM	> 100 µM	> 100 µM	> 100 µM	83.4 µM	> 100 µM	> 100 µM	> 100 µM							
CCOC(=O)c1[nH]c2cccc3c2c1CC[C@H](NC(=O)C(F)(F)F)C3=O	> 100 µM	> 100 µM	> 100 µM	72.4 µM	72.7 µM	> 100 µM	> 100 µM	> 100 µM	> 100 µM	> 100 µM							
O=[N+]([O-])c1ccc(O)c(/C=N/c2nc(-c3ccccc3)cs2)c1	30.9 µM	> 100 µM	> 92.1 µM	> 95.9 µM	> 100 µM	> 100 µM	> 100 µM	> 100 µM	> 100 µM	> 89.7 µM							
CC1=CCC[C@H]2[C@](C)(CC3=CC(=O)C(Sc4ccccc4)=CC3=O)[C@@H](C)CC[C@]12C	46.1 µM	31.4 µM	33.7 µM	32.9 µM	40.1 µM	82 µM	39 µM	32.1 µM	43.5 µM	35.7 µM	20.2 µM	17.1 µM					
CC(=O)OC(C)c1cc2c(s1)C(=O)c1c(C(C)OC(C)=O)csc1C2=O (configuration not stated)	4.98 µM	0.724 µM	1.79 µM	2.59 µM	2.7 µM	6.6 µM	3.64 µM	3.41 µM	0.34 µM	4.4 µM		0.185 µM	0.278 µM	0.516 µM			
COC(=O)C1=CON2C3CC4CC(C3)CC(C4)C12C (configuration not stated)	> 100 µM	> 100 µM	> 100 µM	> 100 µM	> 100 µM	> 100 µM	> 100 µM	> 100 µM	> 100 µM	> 100 µM							
CN(C)CCNC(=O)c1ccc(Cl)c2cc3ccccc3nc12	3.9 µM	6.88 µM	2.62 µM	4.33 µM	10.6 µM	2.6 µM	1.33 µM	10.7 µM	2.22 µM	7.15 µM							
N#CC[N+]1(Cc2ccccn2)CCCC1	> 100 µM	> 100 µM	> 100 µM	> 100 µM	> 100 µM	> 100 µM	> 100 µM	> 100 µM	> 100 µM	> 100 µM							
CN(C)CC1CCC/C(=C\c2ccc(OC(=O)/C=C/c3ccc(Cl)c(Cl)c3)cc2)C1=O (configuration not stated)	0.62 µM	14.6 µM	24.9 µM	26.2 µM	27.9 µM	13.2 µM	32.1 µM	> 65.3 µM	> 60.1 µM	6.84 µM							
COc1ccc2c(c1)c1nn(CCN3CCCCC3)c3ccc4c(=O)n(CCN(C)C)c(=O)n2c4c13	0.0862 µM	0.344 µM	0.109 µM	< 0.0192 µM	0.111 µM	0.603 µM	0.119 µM	0.126 µM	0.088 µM	0.0825 µM							
COc1cc(CCN(C)C)cc(OC)c1OC	> 100 µM	> 100 µM	> 100 µM	> 100 µM	> 100 µM	> 100 µM	> 100 µM	> 100 µM	> 100 µM	> 100 µM							
NC(=Nc1ccccc1)c1ccccc1N	> 100 µM	> 100 µM	> 100 µM	> 100 µM	> 100 µM	> 100 µM	> 100 µM	> 100 µM	> 100 µM	> 100 µM							
CC12CCC(C(=Nc3cc(C(F)(F)F)cc(C(F)(F)F)c3)C1=O)C2(C)C (configuration not stated)	44.7 µM	> 100 µM	> 100 µM	> 100 µM	> 100 µM	> 100 µM	62.5 µM	> 100 µM	> 100 µM	> 100 µM							
COc1ccc2c(c1)CCN1CCCc3ccccc3C21 (configuration not stated)	58.2 µM	> 100 µM	37.9 µM	> 100 µM	> 100 µM	> 100 µM	> 100 µM	> 100 µM	52.5 µM	> 100 µM							
CCCc1nnc2sc(COc3cc(Cl)c(OCc4nn5c(CCC)nnc5s4)cc3Cl)nn12	> 100 µM	78.5 µM	> 100 µM	> 100 µM	> 100 µM	> 100 µM	98.4 µM	> 100 µM	> 100 µM	> 100 µM							

Structure (SMILES)	TGI [1]	TGI [2]	TGI [3]	TGI [4]	TGI [5]	TGI [6]	TGI [7]	TGI [8]	TGI [9]	TGI [10]	GI50 [1]	GI50 [9]	GI50 [2]	GI50 [3]	GI50 [4]	GI50 [6]	GI50 [8]
CCCCCCCCCCCCCCCCCC(=O)Nc1ccn(C2CCC(COP(=O)(O)O)O2)c(=O)n1 (configuration not stated)	> 100 µM	> 100 µM	> 100 µM	> 100 µM	> 100 µM	> 100 µM	> 100 µM	> 100 µM	> 100 µM	> 100 µM							
CC(=O)OCCCCn1cc(Cn2ccc(=O)n(Cc3cn(CCCCOC(C)=O)nn3)c2=O)nn1	> 100 µM	> 100 µM	> 100 µM	> 100 µM	> 100 µM	> 100 µM	> 100 µM	> 100 µM	> 100 µM	> 100 µM							
CCOC(=O)C(=CN1CCNC1=S)C(=O)OCC	> 100 µM	> 32.4 µM	> 100 µM	> 100 µM	> 100 µM	> 100 µM	> 100 µM	> 100 µM	> 100 µM	> 100 µM							
O=[N+]([O-])c1cccc(Cl)c1Oc1ccc(S(=O)(=O)/N=C(\NO)Nc2ccc(Cl)cc2)cc1	27.8 µM	22.6 µM	27.4 µM	34.4 µM	27.5 µM	24.2 µM	28.2 µM	32.8 µM	29.2 µM	33.8 µM							
CC(=O)NC1(C(=O)N[C@@H](Cc2ccccc2)C(=O)NC2CCCCC2)Cc2ccc3ccccc3c2-c2c(ccc3ccccc23)C1	> 100 µM	> 100 µM	29.6 µM and 44 µM	> 100 µM	> 100 µM	> 100 µM	> 100 µM	> 100 µM and 98 µM	> 100 µM	> 100 µM	3.31 µM and 13.9 µM	3.74 µM and 9.85 µM	2.91 µM and 7.77 µM	3.32 µM and 7.79 µM	2.55 µM and 0.662 µM	2.87 µM and 6.4 µM	26.5 µM and 11.5 µM
COCC12CCC(OC)C34C5CC6(O)C(OC)CC(OC(C)=O)(C5C6OC(=O)c5ccccc5)C(C(OC)C13)C4N(C)C2 (configuration not stated)	> 100 µM	> 100 µM	> 100 µM	> 100 µM	> 100 µM	> 100 µM	> 100 µM	> 100 µM	> 100 µM	> 100 µM							
Nc1ccc2ccc(-c3ccc[nH]3)nc2n1	> 100 µM	> 100 µM	> 100 µM	> 100 µM	> 100 µM	> 100 µM	> 100 µM	> 100 µM	> 100 µM	> 100 µM							
CCOC(=O)C(=O)CC(=O)C1=C(c2ccccc2OC)CC(c2cccs2)=CC1=O	> 100 µM	> 100 µM	> 100 µM	> 100 µM	> 100 µM	> 100 µM	> 100 µM	> 100 µM	> 100 µM	> 100 µM							
CC(=O)N(C(C)=O)n1c(Cc2ccc(C)cc2)nn(C(C)=O)c1=O	> 100 µM	> 100 µM	> 100 µM	> 100 µM	> 100 µM	> 100 µM	> 100 µM	> 100 µM	> 100 µM	> 100 µM							
O=C(N/N=C(/COc1ccccc1Cl)N=Cc1ccncc1)c1ccncc1	> 100 µM	> 100 µM	> 100 µM	> 100 µM	> 100 µM	> 100 µM	> 100 µM	> 100 µM	> 100 µM	> 100 µM							
CCCCCN(CCCCC)CC(C)(C)C(O)c1ccc(OC)c2ccccc12 (configuration not stated)	32.1 µM	26 µM	21.7 µM	29.7 µM	22.7 µM	26.4 µM	28.1 µM	31.4 µM	29.8 µM	21 µM							
O=C1C2=C(SCCS2)C(=O)c2c(Sc3ccc(Cl)cc3)c(Sc3ccc(Cl)cc3)c(Sc3ccc(Cl)cc3)c(Sc3ccc(Cl)cc3)c21	> 100 µM	> 100 µM	> 100 µM	> 100 µM	> 100 µM	> 100 µM	73.7 µM	> 100 µM	> 100 µM	> 100 µM							
CNC(=S)NNc1ncnc2c1ncn2-c1ccc(C)cc1	> 100 µM	> 100 µM	> 100 µM	> 100 µM	> 100 µM	> 100 µM	> 100 µM	> 100 µM	> 100 µM	> 100 µM							
CC(C)(C)OC(=O)N1[C@@H]2Cc3ccc(N)cc3[C@@]1(C)c1ccccc12	48.6 µM	68 µM	51.8 µM	> 100 µM	32.4 µM	> 100 µM	79.6 µM	> 100 µM	33.3 µM	32.9 µM							
COc1cc2c(cc1OC)[C@@](C)(C(O)C(O)C(C)(C)O)NCC2 (some centres not stated)	> 100 µM	> 100 µM	> 100 µM	> 100 µM	> 100 µM	> 100 µM	> 100 µM	> 100 µM	> 100 µM	> 100 µM							
COP(=O)(O)C(N)Cc1c[nH]c2ccccc12 (configuration not stated)	> 100 µM	> 100 µM	> 100 µM	> 100 µM	> 100 µM	> 100 µM	> 100 µM	> 100 µM	> 100 µM	> 100 µM							
